What follows are compounds tested on Ovarian cancer cells (OVCAR3) (assay: Inhibitory activity against ovarian cancer cells (OVCAR3), CTG cell viability). Conditions: Homo sapiens, OVCAR-3, 168 h, 7 days with compound.
Assay type: cell-based
Method: Ovarian cancer cells (OVCAR3) were cultured using an RPMI 1640 culture medium containing 10% FBS in a cell incubator (37 °C, 5% CO2). On day one, the cells were plated in a 384-well plate at a cell concentration of 800 cells/well and cultured overnight in an incubator. On day two, the cells were treated with compounds. The highest compound concentration was 10 µM and was diluted 3-fold to obtain 9 concentrations, and the final concentration of DMSO was 0.1%. After the cells were cultured in the incubator for another 7 days, the cell viability was tested using a CTG Cell Viability Detection Reagent (MCE); the testing method was consistent with the method provided by the kit. Data were processed using GraphPad Prism 8, and IC50 was calculated. [formula] X: the logarithm of the compound concentration; Y: inhibition%. Table 2. The IC50 (nM) of compounds of the present disclosure against OVCAR3

| Compound | IC50 |
| --- | --- |
| CNS(=N)(=O)c1ccc(Nc2ncc(Cl)c(-c3cc(F)c4nc(C(C)(C)O)n5c4c3OC[C@@H]5C)n2)c(F)c1 (stereo partly drawn) [Example 9, 4-((5-Chloro-4-((S)-8-fluoro-2-(2-hydroxypropan-2-yl)-3-methyl-3,4-dihydro-5-oxa-1,2a-diazaacenaphthylen-6-yl)pyrimidin-2-yl)amino)-3-fluoro-N-methylbenzenesulfonimide] | 0.752 µM |
| CNC(=O)c1ccc(Nc2ncc(Cl)c(-c3cc(F)c4nc(C(C)(C)O)n5c4c3OC[C@@H]5C)n2)cc1 [Example 11, (S)-4-((5-Chloro-4-(8-fluoro-2-(2-hydroxypropan-2-yl)-3-methyl-3,4-dihydro-5-oxa-1,2a-diazaacenaphthylen-6-yl)pyrimidin-2-yl)amino)-N-methylbenzamide] | 0.673 µM |
| C[C@H]1COc2c(-c3nc(Nc4ccc(N5CCC(N(C)C)CC5=O)cc4F)ncc3Cl)cc(F)c3nc(C(C)(C)O)n1c23 (stereo partly drawn) [Example 12, 1-(4-((5-Chloro-4-((S)-8-fluoro-2-(2-hydroxypropan-2-yl)-3-methyl-3,4-dihydro-5-oxa-1,2a-diazaacenaphthylen-6-yl)pyrimidin-2-yl)amino)-3-fluorophenyl)-4-(dimethylamino)piperidin-2-one] | 0.643 µM |
| C[C@H]1COc2c(-c3nc(Nc4ccc(N5CCOCC5=O)cc4F)ncc3C#N)cc(F)c3nc(C(C)(C)O)n1c23 [Example 13, (S)-4-(8-Fluoro-2-(2-hydroxypropan-2-yl)-3-methyl-3,4-dihydro-5-oxa-1,2a-diazaacenaphthylen-6-yl)-2-((2-fluoro-4-(3-oxomorpholino)phenyl)amino)pyrimidine-5-carbonitrile] | 0.901 µM |
| C[C@H]1COc2c(-c3nc(Nc4ccc(S(C)(=N)=O)cc4F)ncc3F)cc(F)c3nc(C(C)(C)O)n1c23 (stereo partly drawn) [Example 15, (3-Fluoro-4-((5-fluoro-4-((S)-8-fluoro-2-(2-hydroxypropan-2-yl)-3-methyl-3,4-dihydro-5-oxa-1,2a-diazaacenaphthylen-6-yl)pyrimidin-2-yl)amino)phenyl)(methyl)sulfonimide] | 0.636 µM |

Now those with a lower IC50, led by results:

| IC50 | Compound |
| --- | --- |
| 0.231 µM | C[C@H]1COc2c(-c3nc(Nc4ccc(N5CCOCC5=O)cc4)ncc3Cl)cc(F)c3nc(C(C)(C)O)n1c23 [Example 10, (S)-4-(4-((5-Chloro-4-(8-fluoro-2-(2-hydroxypropan-2-yl)-3-methyl-3,4-dihydro-5-oxa-1,2a-diazaacenaphthylen-6-yl)pyrimidin-2-yl)amino)phenyl)morpholin-3-one] |
| 0.223 µM | CNS(=O)(=O)c1ccc(Nc2ncc(F)c(-c3cc(F)c4nc(C(C)(C)O)n5c4c3OC[C@@H]5C)n2)c(F)c1 [Example 16, (S)-3-Fluoro-4-((5-fluoro-4-(8-fluoro-2-(2-hydroxypropan-2-yl)-3-methyl-3,4-dihydro-5-oxa-1,2a-diazaacenaphthylen-6-yl)pyrimidin-2-yl)amino)-N-methylbenzenesulfonamide] |
| 0.0899 µM | CNS(=O)(=O)c1ccc(Nc2ncc(Cl)c(-c3cc(F)c4nc(C(C)(C)O)n5c4c3OC[C@@H]5C)n2)cc1 [Example 5, (S)-4-((5-Chloro-4-(8-fluoro-2-(2-hydroxypropan-2-yl)-3-methyl-3,4-dihydro-5-oxa-1,2a-diazaacenaphthylen-6-yl)pyrimidin-2-yl)amino)-N-methylbenzenesulfonamide] |
| 0.0802 µM | Cc1nc2c(F)cc(-c3nc(Nc4ccc(N5CCOCC5=O)cc4F)ncc3F)c3c2n1[C@@H](C)CO3 [Example 6, (S)-4-(3-Fluoro-4-((5-fluoro-4-(8-fluoro-2,3-dimethyl-3,4-dihydro-5-oxa-1,2a-diazaacenaphthylen-6-yl)pyrimidin-2-yl)amino)phenyl)morpholin-3-one] |
| 0.0475 µM | C[C@H]1COc2c(-c3nc(Nc4ccc(N5CCOCC5=O)cc4F)ncc3F)cc(F)c3ncn1c23 [Example 2, (S)-4-(3-Fluoro-4-((5-fluoro-4-(8-fluoro-3-methyl-3,4-dihydro-5-oxa-1,2a-diazaacenaphthylen-6-yl)pyrimidin-2-yl)amino)phenyl)morpholin-3-one] |

Source: EP4752149A1, “OXYGEN-CONTAINING FUSED TRICYCLIC DERIVATIVE, AND PREPARATION METHOD THEREFOR AND USE THEREOF” (Tuojie Biotech (Shanghai) Co., Ltd., priority 2023, dated 2025)
